Measurements taken from patent publication US8729082B2, “Substituted imidazoquinoxalines” (Bayer Intellectual Property GmbH, priority 2009, dated 2014).

biological target: T1, human kinase Mps-1 (Homo sapiens, UniProt P33981); experiment: Mps-1 kinase assay (HTRF); format: biochemical; details: lowATP; mean; read-out: Mps1 lowATP mean IC50
T1 construct: N-terminally GST-tagged human full length recombinant Mps-1 kinase; purchased Invitrogen, Karslruhe, Germany PV4071
T1 sequence (P33981 1-857): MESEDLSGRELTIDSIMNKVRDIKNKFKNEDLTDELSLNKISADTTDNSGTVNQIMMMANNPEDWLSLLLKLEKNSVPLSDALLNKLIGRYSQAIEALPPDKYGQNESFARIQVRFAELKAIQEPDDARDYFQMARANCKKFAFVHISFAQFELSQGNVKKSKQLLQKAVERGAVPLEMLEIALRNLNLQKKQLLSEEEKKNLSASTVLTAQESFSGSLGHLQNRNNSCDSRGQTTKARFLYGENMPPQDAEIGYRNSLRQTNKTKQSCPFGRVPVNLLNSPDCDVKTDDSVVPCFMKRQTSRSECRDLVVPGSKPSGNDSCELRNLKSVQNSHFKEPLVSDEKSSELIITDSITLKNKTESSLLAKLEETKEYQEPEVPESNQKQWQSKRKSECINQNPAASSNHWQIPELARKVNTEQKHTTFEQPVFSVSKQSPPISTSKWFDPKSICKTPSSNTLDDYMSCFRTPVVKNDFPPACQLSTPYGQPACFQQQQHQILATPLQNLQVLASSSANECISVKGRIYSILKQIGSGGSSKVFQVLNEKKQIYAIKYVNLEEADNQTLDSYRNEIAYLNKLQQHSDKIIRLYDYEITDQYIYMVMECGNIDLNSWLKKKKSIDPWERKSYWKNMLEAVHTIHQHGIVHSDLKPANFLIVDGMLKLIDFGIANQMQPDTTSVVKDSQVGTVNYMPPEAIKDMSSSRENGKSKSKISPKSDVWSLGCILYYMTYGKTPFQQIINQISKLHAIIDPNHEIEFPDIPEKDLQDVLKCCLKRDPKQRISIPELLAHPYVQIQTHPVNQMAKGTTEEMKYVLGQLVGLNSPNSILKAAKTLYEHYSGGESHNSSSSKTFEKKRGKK
Procedure, shortened: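 HTRF readout: EDTA-stopped reactions incubated 1 h with europium anti-phospho(Ser/Thr) antibody and streptavidin-XLent, emission ratio 665/620 nm after 350 nm excitation. Kinase step: compound pre-bound 15 min to ~1 nM GST-Mps-1, then 60 min at 22 °C with ATP and biotin-peptide substrate; inhibition scaled between no-inhibitor (0%) and no-enzyme (100%) controls.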

IC50 [µM]	SMILES
0.114	COCCCNc1nc2cc(F)c(F)cc2n2c(-c3ccc(C(=O)NC4CC4)cc3)cnc12 [Example 2-108, N-cyclopropyl-4-{7,8-difluoro-4-[(3-methoxypropyl)amino]imidazo[1,2-a]quinoxalin-1-yl}benzamide]
0.106	N#Cc1ccc2c(c1)nc(NCc1ccccn1)c1ncc(-c3ccc(C(=O)NC4CC4)cc3)n12 [Example 2-213, 4-{7-cyano-4-[(pyridin-2-ylmethyl)amino]imidazo[1,2-a]quinoxalin-1-yl}-N-cyclopropylbenzamide]
2.4	COCCCNc1nc2cc(C#N)ccc2n2c(-c3ccc(C(=O)NC4CC4)c(Cl)c3)cnc12 [Example 2-249, 2-chloro-4-{7-cyano-4-[(3-methoxypropyl)amino]imidazo[1,2-a]quinoxalin-1-yl}-N-cyclopropylbenzamide]
9.91	CNC(=O)Nc1ccc(-c2cnc3c(NCCS(N)(=O)=O)nc4ccc(F)cc4n23)cc1 [Example 2-73, 2-[(8-fluoro-1-{4-[(methylcarbamoyl)amino]phenyl}imidazo[1,2-a]quinoxalin-4-yl)amino]ethanesulfonamide]
0.199	CNC(=O)Nc1ccc(-c2cnc3c(NCc4ccnn4C)nc4cc(C)c(C)cc4n23)cc1 [Example 2-175, 1-[4-(7,8-dimethyl-4-{[(1-methyl-1H-pyrazol-5-yl)methyl]amino}imidazo[1,2-a]quinoxalin-1-yl)phenyl]-3-methylurea]
0.00286	CCCCNc1nc2cc(C)c(C)cc2n2c(-c3ccc(C(=O)NC4CC4)cc3)cnc12 [Example 2-149, 4-[4-(butylamino)-7,8-dimethylimidazo[1,2-a]quinoxalin-1-yl]-N-cyclopropylbenzamide]
0.0355	Cc1cc2nc(NCc3cccnc3)c3ncc(-c4ccc(C(=O)NC5CC5)c(Cl)c4)n3c2cc1C [Example 2-192, 2-chloro-N-cyclopropyl-4-{7,8-dimethyl-4-[(pyridin-3-ylmethyl)amino]imidazo[1,2-a]quinoxalin-1-yl}benzamide]
4.98	CCOc1ccc(-c2cnc3c(NCC(C)C)nc4ccccc4n23)cc1 [Example 1-29, 1-(4-ethoxyphenyl)-N-(2-methylpropyl)imidazo[1,2-a]quinoxalin-4-amine]
1.68	CC(C)CNc1nc2ccccc2n2c(-c3ccc(CO)cc3)cnc12 [Example 1-27, (4-{4-[(2-methylpropyl)amino]imidazo[1,2-a]quinoxalin-1-yl}phenyl)methanol]
0.00592	Cc1cc2nc(NCCCO)c3ncc(-c4ccc(C(=O)NC5CC5)cc4)n3c2cc1C [Example 2-148, N-cyclopropyl-4-{4-[(3-hydroxypropyl)amino]-7,8-dimethylimidazo[1,2-a]quinoxalin-1-yl}benzamide]
0.094	CCNc1nc2ccccc2n2c(-c3ccc(C(=O)NC4CC4)cc3)cnc12 [Example 2-19, N-cyclopropyl-4-[4-(ethylamino)imidazo[1,2-a]quinoxalin-1-yl]benzamide]
0.158	CC(C)CNc1nc2ccccc2n2c(-c3ccc(C(=O)NC4(C)CC4)cc3)cnc12 [Example 3-32, N-(1-methylcyclopropyl)-4-{4-[(2-methylpropyl)amino]imidazo[1,2-a]quinoxalin-1-yl}benzamide]
0.286	O=C(NC1CC1)c1ccc(-c2cnc3c(NCCO)nc4cc(F)c(F)cc4n23)cc1 [Example 2-89, N-cyclopropyl-4-{7,8-difluoro-4-[(2-hydroxyethyl)amino]imidazo[1,2-a]quinoxalin-1-yl}benzamide]
2.82	CNC(=O)Nc1ccc(-c2cnc3c(NCc4cccs4)nc4cc(C#N)ccc4n23)cc1 [Example 2-226, 1-(4-{7-cyano-4-[(thiophen-2-ylmethyl)amino]imidazo[1,2-a]quinoxalin-1-yl}phenyl)-3-methylurea]

The remaining lines, values behind:

SMILES	IC50 [µM]
N#Cc1ccc2c(c1)nc(NCc1ccncc1)c1ncc(-c3ccc(C(=O)NC4CC4)c(Cl)c3)n12 [Example 2-246, 2-chloro-4-{7-cyano-4-[(pyridin-4-ylmethyl)amino]imidazo[1,2-a]quinoxalin-1-yl}-N-cyclopropylbenzamide]	1.3
N#Cc1ccc2c(c1)nc(NCc1ccccc1)c1ncc(-c3ccc(C(=O)NC4CC4)c(Cl)c3)n12 [Example 2-240, 4-[4-(benzylamino)-7-cyanoimidazo[1,2-a]quinoxalin-1-yl]-2-chloro-N-cyclopropylbenzamide]	0.889
CCn1nccc1C(=O)Nc1cccc(NC(=O)c2ccc(-c3cnc4c(NCC(C)C)nc5ccccc5n34)cc2)c1 [Example 3-24, 1-ethyl-N-{3-[(4-{4-[(2-methylpropyl)amino]imidazo[1,2-a]quinoxalin-1-yl}benzoyl)amino]phenyl}-1H-pyrazole-5-carboxamide]	3.61
CC(C)CNc1nc2ccccc2n2c(-c3ccc(C(=O)Nc4cccc(C(N)=O)c4)cc3)cnc12 [Example 3-10, N-(3-carbamoylphenyl)-4-{4-[(2-methylpropyl)amino]imidazo[1,2-a]quinoxalin-1-yl}benzamide]	0.865
CNC(=O)Nc1ccc(-c2cnc3c(NCCC(N)=O)nc4cc(C)c(C)cc4n23)cc1 [Example 2-174, N^3-(7,8-dimethyl-1-{4-[(methylcarbamoyl)amino]phenyl}imidazo[1,2-a]quinoxalin-4-yl)-beta-alaninamide]	0.782
CC(C)(C)OC(=O)NCCCNc1nc2cc(C#N)ccc2n2c(-c3ccc(C(=O)NC4CC4)c(Cl)c3)cnc12 [Example 2-250, tert-butyl [3-({1-[3-chloro-4-(cyclopropylcarbamoyl)phenyl]-7-cyanoimidazo[1,2-a]quinoxalin-4-yl}amino)propyl]carbamate]	1.46
CC(C)CNc1nc2ccccc2n2c(-c3ccncc3)cnc12 [Example 1-34, N-(2-methylpropyl)-1-(pyridin-4-yl)imidazo[1,2-a]quinoxalin-4-amine]	11.9
CC(=O)NCc1cccc(-c2cnc3c(NCC(C)C)nc4ccccc4n23)c1 [Example 1-44, N-(3-{4-[(2-methylpropyl)amino]imidazo[1,2-a]quinoxalin-1-yl}benzyl)acetamide]	11.5
Cc1cc2nc(NCC(C)C)c3ncc(-c4ccc(C(=O)NC5CC5)c(Cl)c4)n3c2cc1C [Example 2-194, 2-chloro-N-cyclopropyl-4-{7,8-dimethyl-4-[(2-methylpropyl)amino]imidazo[1,2-a]quinoxalin-1-yl}benzamide]	0.0227
CCNC(=O)Nc1ccc(-c2cnc3c(NCC(C)C)nc4ccccc4n23)cc1 [Example 1-3, 1-ethyl-3-[4-(4-isobutylamino-imidazo[1,2-a]quinoxalin-1-yl)-phenyl]-urea]	20
CC(C)CNc1nc2ccccc2n2c(-c3ccc(C(=O)Nc4ccn(C)n4)cc3)cnc12 [Example 3-23, 4-{4-[(2-methylpropyl)amino]imidazo[1,2-a]quinoxalin-1-yl}-N-(1-methyl-1H-pyrazol-3-yl)benzamide]	0.997
COc1ccccc1CNc1nc2ccccc2n2c(-c3ccc(C(=O)NC4CC4)cc3)cnc12 [Example 2-13, N-cyclopropyl-4-{4-[(2-methoxybenzyl)amino]imidazo[1,2-a]quinoxalin-1-yl}benzamide]	0.334
CC(C)CCNc1nc2ccccc2n2c(-c3ccc(C(=O)NC4CC4)cc3)cnc12 [Example 2-3, N-cyclopropyl-4-{4-[(3-methylbutyl)amino]imidazo[1,2-a]quinoxalin-1-yl}benzamide]	0.034
CNC(=O)Nc1ccc(-c2cnc3c(NCCS(N)(=O)=O)nc4cc(C)c(C)cc4n23)cc1 [Example 2-177, 2-[(7,8-dimethyl-1-{4-[(methylcarbamoyl)amino]phenyl}imidazo[1,2-a]quinoxalin-4-yl)amino]ethanesulfonamide]	2.24
CNC(=O)Nc1ccc(-c2cnc3c(NCc4ccccc4)nc4cc(C)c(C)cc4n23)cc1 [Example 2-166, 1-{4-[4-(benzylamino)-7,8-dimethylimidazo[1,2-a]quinoxalin-1-yl]phenyl}-3-methylurea]	0.609
CC(C)CNc1nc2ccccc2n2c(-c3ccc(C(=O)Nc4ccc(S(N)(=O)=O)cc4)cc3)cnc12 [Example 3-9, 4-{4-[(2-methylpropyl)amino]imidazo[1,2-a]quinoxalin-1-yl}-N-(4-sulfamoylphenyl)benzamide]	6.59
NS(=O)(=O)CCNc1nc2cc(F)c(F)cc2n2c(-c3ccc(C(=O)NC4CC4)cc3)cnc12 [Example 2-112, N-cyclopropyl-4-{7,8-difluoro-4-[(2-sulfamoylethyl)amino]imidazo[1,2-a]quinoxalin-1-yl}benzamide]	0.053
